# Test results from patent publication US20130287688A1, “NOVEL COMPOSITIONS AND USES OF ANTI-HYPERTENSION AGENTS FOR CANCER THERAPY” (XTUIT PHARMACEUTICALS, INC., priority 2010, published 2013).
# Assays:
# Mu89 tumors [1] = assay: Distribution of intratumorally injected 100 nm nanoparticles; type: in vivo, mice; conditions: 100 nm diameter nanoparticles
# Description: (§1) Based on the previous studies on the tumor interstitial matrix (Pluen A, et al. (2001) Proc Natl Acad Sci USA 98:4628-4633 and Brown E, et al. (2003) Nat Med 9:796-800), the inventors then sought to determine if a decrease in collagen content by Losartan can improve the intratumoral distribution of nanoparticles. The inventors therefore measured the intratumoral distribution of fluorescent polystyrene nanoparticles (100 nm diameter) in three different tumor types—HSTS26T, Mu89, and L3.6 pl—after an i.t. or i.v. injection. In mice injected i.t. with nanoparticles, losartan improved nanoparticle accumulation and penetration in the tumor center (FIG. 8A; HSTS26T p<0.001, Mu89 p<0.001). Conversely, there was little or no nanoparticle accumulation in the center of control tumors. Most of the injected nanoparticles in control tumors were found in the tumor margin and around the needle insertion point (FIG. 8A). The inventors also determined the effects of losartan on the intratumoral distribution of oncolytic HSV.
# (§2) Nanoparticles and oncolytic HSV were infused with a syringe pump (Harvard Apparatus Standard Pump 22, Holliston, Mass.) at a flow rate of 4 μl/min. The inventors injected 10 μl of HSV (2.5×10^5 t.u.) expressing the green fluorescent protein (GFP), or 10 μl of fluorescent nanoparticles (diameter of […]; concentration of 1×10^13 nanoparticles/ml). […]
# HSTS26T tumors [2] = assay: as above; type: in vivo, mice; conditions: 100 nm diameter nanoparticles
# Description: as §1, §2
# 4T1 breast tumors = assay: Breast tumor growth and survival studies; type: in vivo, mice
# Description: In FIG. 35B, the quantification of tumor growth rates, based on the time to reach double the initial volume, is shown.
# In FIG. 35C, the animal survival following the initiation of treatment is shown. […] Statistical tests were corrected for multiple comparisons using the Holm-Bonferroni method.
# Breast tumor growth and survival studies: Mice bearing orthotopic E0771 or 4T1 breast tumors were split into treatment groups, time-matched for time after implantation and size-matched for tumor volume at this time (110-111 mm^3 in E0771, in 4T1). […] The primary tumors were then measured every 2 days, beginning on day 0, using calipers. Tumor growth was quantified using the time for each to reach double its initial volume Animal survival was quantified based on time of death after initiation of treatment or time to reach excessive tumor burden (>1000 mm^3).
# E0771 breast tumors [3] = assay: Vessel perfusion histology (lectin / CD31); type: in vivo, SCID mouse; conditions: 40 mg/kg
# E0771 breast tumors [4] = assay: Interstitial hydraulic conductivity of excised tumor tissue; type: in vivo, mice; conditions: 40 mg/kg i.p. daily, 6 days
# Procedure: FIG. 31 is a bar graph showing that angiotensin inhibitors increase fluid flow in tumors. Interstitial hydraulic conductivity was measured by the flow rate of media through freshly excised tumor tissue. […] Animal number n=6.
# Oxygenation was then studied using phosphorescence quenching microscopy. […] This decrease in tumor hypoxia was confirmed by using pimonidazole staining (FIGS. 29D and 30). To determine if losartan also increases nanomedicine delivery, which is dependent on both vascular supply and penetration across vessel walls into tumor tissue, nanoparticle penetration was measured using intravital multiphoton microscopy. Nanoparticle penetration rates were quantified as transvascular mass flux per unit vascular surface area and transvascular concentration difference, termed as the effective permeability. […] Penetration rates are largely dependent on fluid flow through the viscoelastic and tortuous tumor interstitium, which is a function of interstitial hydraulic conductivity. It was determined that losartan also increases the hydraulic conductivity of E0771 tumors (FIG. 31), likely through its anti-matrix effects, and a mathematical model (Chauhan V P, et al., Nature Nanotechnology. 2012; advance online publication) was used to confirm that this can improve the penetration rate of all sizes of nanomedicines (FIG. 32). […]
# Mu89 tumors [5] = assay: In vivo proliferation (Ki67 staining); set-up: species or system mice; conditions: after losartan treatment
# Description: (§3) Tumors were resected and stained for Ki67 to assess proliferation rates. […] There was however a significant difference in proliferation between the two tumor types, the number of Ki67 positive cells was 3 fold higher in HSTS26T tumors.
# (§4) Ki67 staining was done on paraffin sections 21 days after HSV injection. Slides were microwave processed with Target Retrieval Solution (DAKO, Carpinteria, Calif.) prior to primary antibody detection. The entire tumor section was imaged at 2× magnification and reconstituted as a mosaic. Twenty regions were randomly selected in each tumor. The fraction of Ki67 positive cells in each region was determined by manual count.
# HSTS26T tumors [6] = assay: In vivo proliferation (Ki67 staining); set-up: species or system mice; conditions: after losartan treatment
# Description: as §3, §4
structure (smiles),measurement,setting,value
CCCCc1nc(Cl)c(CO)n1Cc1ccc(-c2ccccc2-c2nn[nH]n2)cc1 [losartan],increase in distribution of i.t.-injected nanoparticles,Mu89 tumors [1],4 fold
same,increase in distribution of i.t.-injected nanoparticles,HSTS26T tumors [2],1.5 fold
same,tumor growth rate,4T1 breast tumors; agent given alone (losartan 40 mg/kg daily or doxorubicin 2 mg/kg every three days),no significant effect
same,survival,4T1 breast tumors; combination of losartan and doxorubicin,improved survival
same,tumor growth,4T1 breast tumors; losartan in combination with doxorubicin,significantly delayed
same,survival,4T1 breast tumors; monotherapy,did not shorten survival
same,CD31+ vessel density,E0771 breast tumors [3],did not affect
same,vessel diameters,E0771 breast tumors [3],increased
same,interstitial hydraulic conductivity,E0771 breast tumors [4],large increase
same,positive Ki67 staining,Mu89 tumors [5],no statistically significant difference
same,positive Ki67 staining,HSTS26T tumors [6],no statistically significant difference
